# ChEMBL document CHEMBL1136546, “SLV310, a novel, potential antipsychotic, combining potent dopamine D2 receptor antagonism with serotonin reuptake inhibition” (Bioorg Med Chem Lett, 2003)
# Experiments:
# D(2) dopamine receptor = D(2) dopamine receptor (Homo sapiens, UniProt P14416); assay: In vitro binding affinity at human cloned dopamine receptor D2 (long) stably expressed in CHO cells by [3H]spiperone displacement.; assay type: cell-based
# [1] = biological target: Sodium-dependent serotonin transporter (Rattus norvegicus, UniProt P31652); assay: In vitro binding affinity for serotonin reuptake sites in rat frontal cortex membranes by [3H]paroxetine displacement.; assay type: cell membranes, Membrane
# Sequence of Sodium-dependent serotonin transporter (P31652 whole entry): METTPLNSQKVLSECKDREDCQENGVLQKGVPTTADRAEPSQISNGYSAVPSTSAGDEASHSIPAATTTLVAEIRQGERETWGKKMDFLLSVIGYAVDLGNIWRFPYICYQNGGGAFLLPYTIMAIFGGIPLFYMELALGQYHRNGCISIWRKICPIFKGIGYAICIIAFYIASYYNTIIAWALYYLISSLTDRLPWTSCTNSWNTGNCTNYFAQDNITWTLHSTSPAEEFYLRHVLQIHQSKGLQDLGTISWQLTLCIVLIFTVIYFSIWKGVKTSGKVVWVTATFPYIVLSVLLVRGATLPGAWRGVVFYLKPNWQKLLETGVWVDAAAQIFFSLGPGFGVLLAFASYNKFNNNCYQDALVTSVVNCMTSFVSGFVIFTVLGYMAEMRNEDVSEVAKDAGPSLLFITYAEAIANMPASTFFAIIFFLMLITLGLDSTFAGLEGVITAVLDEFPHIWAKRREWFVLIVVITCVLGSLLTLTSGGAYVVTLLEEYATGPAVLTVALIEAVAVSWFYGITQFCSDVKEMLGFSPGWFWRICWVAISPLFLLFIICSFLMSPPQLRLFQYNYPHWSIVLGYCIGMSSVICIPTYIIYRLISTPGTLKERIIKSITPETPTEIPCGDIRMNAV
# Mus musculus [2] = assay: Dopaminergic antagonistic activity was determined in vivo by antagonising apomorphine induced climbing behavior (APO) in mice by oral administration; assay type: functional
# Rattus norvegicus = assay: Effective dose to exhibit antipsychotic potency after oral administration in rats was determined; assay type: functional
# Mus musculus [3] = assay: Serotonin reuptake activity was determined in vivo by potentiation of 5-hydroxytryptophan induced serotonin syndrome like behavior in mice by oral administration; assay type: functional
# Sequence of D(2) dopamine receptor (P14416 whole entry): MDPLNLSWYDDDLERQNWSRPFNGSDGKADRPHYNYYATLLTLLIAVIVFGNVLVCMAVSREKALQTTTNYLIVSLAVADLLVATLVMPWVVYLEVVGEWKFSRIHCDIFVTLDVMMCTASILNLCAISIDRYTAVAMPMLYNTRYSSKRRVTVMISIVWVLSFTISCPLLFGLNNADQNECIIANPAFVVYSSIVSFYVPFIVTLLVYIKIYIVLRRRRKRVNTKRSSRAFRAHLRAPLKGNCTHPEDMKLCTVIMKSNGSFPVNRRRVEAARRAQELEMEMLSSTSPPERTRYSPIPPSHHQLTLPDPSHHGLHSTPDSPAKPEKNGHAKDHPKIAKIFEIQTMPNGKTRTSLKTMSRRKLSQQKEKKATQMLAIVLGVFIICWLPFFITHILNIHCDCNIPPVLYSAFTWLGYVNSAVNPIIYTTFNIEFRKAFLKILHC
Structure (SMILES),Ki (D(2) dopamine receptor),Ki [1],ED50 (Mus musculus [2]),ED50 (Rattus norvegicus),ED50 (Mus musculus [3])
Cc1cccc2c1C(=O)N(CCCCCN1CC=C(c3c[nH]c4ccccc34)CC1)C2=O,100 nM,1 nM,–,–,–
O=C1c2ccccc2C(=O)N1CCCCCN1CC=C(c2c[nH]c3ccc(Cl)cc23)CC1,20 nM,16 nM,–,–,–
Cc1ccc2c(c1)C(=O)N(CCCCCN1CC=C(c3c[nH]c4ccccc34)CC1)C2=O,40 nM,2 nM,–,–,–
O=C1c2ccccc2C(=O)N1CCCCN1CC=C(c2c[nH]c3ccc(F)cc23)CC1,16 nM,0.6 nM,–,–,–
O=C1c2ccccc2C(=O)N1CCCCCN1CC=C(c2c[nH]c3ccc(F)cc23)CC1,5 nM,2.5 nM,5.6 mg/kg,17.5 mg/kg,5.9 mg/kg
C1=C(c2c[nH]c3ccccc23)CCNC1,–,6 nM,–,–,–
O=C1c2ccccc2C(=O)N1CCCN1CC=C(c2c[nH]c3ccc(F)cc23)CC1,20 nM,25 nM,–,–,–
Cc1cccc2c1C(=O)N(CCCCCN1CC=C(c3c[nH]c4ccc(F)cc34)CC1)C2=O,25 nM,1 nM,–,–,–
O=C1c2cccc(F)c2C(=O)N1CCCCCN1CC=C(c2c[nH]c3ccc(F)cc23)CC1,12 nM,0.4 nM,6.1 mg/kg,–,10 mg/kg
O=C1c2ccc(F)cc2C(=O)N1CCCCCN1CC=C(c2c[nH]c3ccc(F)cc23)CC1,10 nM,1.3 nM,5 mg/kg,–,10 mg/kg
O=C1c2ccccc2C(=O)N1CCCCCCCN1CC=C(c2c[nH]c3ccc(F)cc23)CC1,25 nM,0.8 nM,–,–,–
O=C1c2cccc(F)c2C(=O)N1CCCCCN1CC=C(c2c[nH]c3ccccc23)CC1,25 nM,0.8 nM,> 20 mg/kg,–,< 50 mg/kg
Cc1ccc2c(c1)C(=O)N(CCCCCN1CC=C(c3c[nH]c4ccc(F)cc34)CC1)C2=O,20 nM,3 nM,–,–,–
O=C1c2ccccc2C(=O)N1CCCCCN1CC=C(c2c[nH]c3ccccc23)CC1,25 nM,2.5 nM,14 mg/kg,–,7.1 mg/kg
O=C1c2ccc(F)cc2C(=O)N1CCCCCN1CC=C(c2c[nH]c3ccccc23)CC1,40 nM,2 nM,–,–,–
Cc1cccc2c(C3=CCN(CCCCCN4C(=O)c5ccccc5C4=O)CC3)c[nH]c12,40 nM,1.3 nM,–,–,–
O=C(CCCN1CCC(CCc2c[nH]c3ccccc23)CC1)c1ccc(F)cc1,40 nM,2 nM,11 mg/kg,–,> 30 mg/kg
O=C(CCCN1CCC(O)(c2ccc(Cl)cc2)CC1)c1ccc(F)cc1 [HALOPERIDOL],–,–,0.1 mg/kg,–,–
c1ccc2c(CCC3CCNCC3)c[nH]c2c1 [INDALPINE],> 1000 nM,–,–,–,–
